Results reported in patent US20230293447A1, “CLEAVABLE LIPIDIC COMPOUNDS, COMPOSITIONS CONTAINING THEREOF, AND USES THEREOF” (priority 2020, published 2023).

What was measured:
[1] = test system: hEPO; assay: hEPO expression in mouse serum after intramuscular injection of LNPs containing hEPO mRNA (ELISA); format: in vivo, Balb/c ByJ mice; conditions: 1 μg-dose of hEPO mRNA IM in quadriceps, serum 6 hours post-injection; LNPs lipid/DSPC/Chol/DMG-PEG2000 50:10:3.5:1.5, N/P 12
Experimental: LNPs comprising lipidic compound of formula (III) (or DOG-Cleave) or one of the compounds (VI), (XVII), (XIX), (XXI), (XXII), (XXIV), (XXVII) and (XXVIII), DSPC, Chol and DMG-PEG2000 at a molar ratio of 50:10:3.5:1.5, and hEPO mRNA at a N/P charge ratio=12 (unless otherwise specified in the table), were prepared as described in Example 30 by using the NanoassemblR. An Aqueous/Ethanolic phase volume ratio of 3/1 and at total flow rate of 4 mL/min was used. LNPs were prepared at a concentration of 60 μg of hEPO mRNA/mL in PBS 1×.
Four 8-week-old mice per group were injected on DO via intramuscular route in the quadriceps with 1 μg-dose of hEPO mRNA formulated in LNPs Lip. (IV)/DSPC under a final volume of 50 μL. As negative control, 4 mice received the same volume of PBS (for accelerated stability study and lipid screening) or Citrate Buffer (lipid screening)
Blood samples were collected 6 hours post-injection to measure the expression of hEPO in serum using a specific ELISA assay.
Blood samples were collected 6 hours post-injection by carotid section under deep anesthesia with Imalgene/Rompun (1.6 mg of Ketamine/0.32 mg of Xylazine) in serum-separation tubes (BD Vacutainer #BD367957). Sera were aliquoted and stored at −20° C. until hEPO determination.
hEPO expression in mouse sera was assessed using human Erythropoietin Quantikine IVD ELISA kit (R&D Systems #DEP00). The ELISA was performed following supplier's instructions. Briefly, sera were added in pre-coated plates and incubated for one hour at room temperature under orbital shaking. After sera removal, Erythropoietin conjugate was added for one hour at room temperature under orbital shaking. Plates were washed and Substrate solution was added for 20-25 minutes at room temperature before stopping the reaction with Stop solution. Absorbance at 450 nm with 650 nm signal subtraction was determined in a microplate reader. Data were analyzed using SoftmaxPro software and expressed in log 10 of the concentration of hEPO measured in mouse sera in pg/mL.

[2] = UHPLC-CAD-MS analysis of cleavage of DOG-Cleave during LNP formulation process; format: physicochemical; conditions: from extracted ion chromatograms, same response factor assumed

Molecule | EPO secretion IM [1] [Log10 pg/ml] | other results
CCCCCCCC/C=C\CCCCCCCCOCC(COCCOCCOCCOCCOC(=O)CNCCOC(=O)[C@@H](N)COC)OCCCCCCCC/C=C\CCCCCCCC.Cl (stereo partly drawn) [Compound (VI), 2-[[2-[2-[2-[2-[2-[2,3-bis[(Z)-octadec-9-enoxy]propoxy]ethoxy]ethoxy]ethoxy]ethoxy]-2-oxoethyl]amino]ethyl (2S)-2-amino-3-methoxy-propanoate; Hydrochloride] | 2.1 | –
CCCCCCCCC(CCCCCC)C(=O)OCCCCCCOCC(OCCCCCCOC(=O)C(CCCCCC)CCCCCCCC)C(=O)N(CCCCCCCC)CCOCCOCCOCCOCCOC(=O)CNCCOC(=O)CNCCOC (centres unmarked) [Compound (XXVIII), 6-[2-[6-(2-hexyldecanoyloxy)hexoxy]-3-[2-[2-[2-[2-[2-[2-[2-[2-(2-methoxyethylamino)acetyl]oxyethylamino]acetyl]oxyethoxy]ethoxy]ethoxy]ethoxy]ethyl-octyl-amino]-3-oxopropoxy]hexyl 2-hexyldecanoate;2,2,2-trifluoroacetic acid] | 2.3 | –
CCCCCCCCC=CCCCCCCCCOCC(OCCCCCCCCC=CCCCCCCCC)C(=O)N(CCCCCCCC)CCOCCOCCOCCOCCOC(=O)CNCCOC(=O)CNCCOC.O=C(O)C(F)(F)F (centres unmarked) [Compound (XIX), 2-[[2-[2-[2-[2-[2-[2-[2,3-bis[(Z)-octadec-9-enoxy]propanoyl-octylamino]ethoxy]ethoxy]ethoxy]ethoxy]ethoxy]-2-oxo-ethyl]amino]ethyl 2-(2-methoxyethylamino)acetate;2,2,2-trifluoroacetic Acid] | 2.4 | –
CCCCCCCCC=CCCCCCCCCOCC(OCCCCCCCCC=CCCCCCCCC)C(CCCCCCCCCCCC)OC(=O)NCCOCCOCCOCCOC(=O)CNCCOC(=O)CNCCOC.O=C(O)C(F)(F)F (centres unmarked) [Compound (XXIV), 2-[[2-[2-[2-[2-[2-[1-[1,2-bis[(Z)-octadec-9-enoxy]ethyl]tridecoxycarbonylamino]ethoxy]ethoxy]ethoxy]ethoxy]-2-oxo-ethyl]amino]ethyl 2-(2-methoxyethylamino)acetate;2,2,2-trifluoroacetic Acid] | 1.9 | –
CCCCCCC(CCCC)C(=O)OCCCCCCOCC(COCCOCCOCCOCCOC(=O)CNCCOC(=O)CNCCOC)OCCCCCCOC(=O)C(CCCC)CCCCCC (centres unmarked) [Compound (XXII), 6-[2-[6-(2-butyloctanoyloxy)hexoxy]-3-[2-[2-[2-[2-[2-[2-[2-(2-methoxyethylamino)acetyl]oxyethylamino]acetyl]oxyethoxy]ethoxy]ethoxy]ethoxy]propoxy]hexyl 2-butyloctanoate;2,2,2-trifluoroacetic Acid] | 2.5 | –
CCCCCCCCCOC(=O)CCCCCCCN(CCCCCCCC(=O)OC(CCCCCCCC)CCCCCCCC)C(=O)CCOCCOCCOCCOC(=O)CNCCOC(=O)CNCCOC [Compound (XXVII), nonyl 8-[3-[2-[2-[2-[2-[2-[2-(2-methoxyethylamino)acetyl]oxyethylamino]acetyl]oxyethoxy]ethoxy]ethoxy]propanoyl-[8-(1-octylnonoxy)-8-oxo-octyl]amino]octanoate;2,2,2-trifluoroacetic Acid] | 1.9 | –
[(Z)-non-2-enyl] 8-[3-[2-[2-[2-[2-[2-[2-[2-(2-methoxyethylamino)acetyl]oxyethylamino]acetyl]oxyethoxy]ethoxy]ethoxy]ethoxy]-2-[8-[(Z)-non-2-enoxy]-8-oxo-octoxy]propoxy]octanoate;2,2,2-trifluoroacetic Acid [Compound (XVII)] | 2.4 | –
CCCCCCCC/C=C\CCCCCCCCOCC(COCCOCCOCCOCCOC(=O)CNCCOC(=O)CNCCOC)OCCCCCCCC/C=C\CCCCCCCC.O=C(O)C(F)(F)F.O=C(O)C(F)(F)F (centres unmarked) [Compound (III), 2-[[2-[2-[2-[2-[2-[2,3-bis[(Z)-octadec-9-enoxy]propoxy]ethoxy]ethoxy]ethoxy]ethoxy]-2-oxo-ethyl]amino]ethyl 2-(2-methoxyethylamino)acetate;2,2,2-trifluoroacetic Acid] | 1.5 | Relative amount in DOG-Cleave EtOH solution [2]: 75%; Relative amount in Final LNP [2]: 25%; Relative amount in LNP after 1st dialysis [2]: 59%
